Results from PubChem BioAssay (NCI).
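Each compound was tested at five concentrations against cells in 96-well plates for 48 hours. Here, GI50 denotes the concentration required for 50% inhibition of growth. The concentration for full growth arrest is given as TGI.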

Legend:
Assay in all cases: NCI-60 cell line screen, 48 h
NCI-H23 lung = test system: NCI-H23 lung
SK-MEL-5 melanoma = test system: SK-MEL-5 melanoma
SF-539 CNS = test system: SF-539 CNS
HS 578T breast = test system: HS 578T breast
SN12C renal = test system: SN12C renal
K-562 leukemia = test system: K-562 leukemia
IGROV1 ovarian = test system: IGROV1 ovarian
OVCAR-4 ovarian = test system: OVCAR-4 ovarian
U251 CNS = test system: U251 CNS
DU-145 prostate = test system: DU-145 prostate

Row | SMILES | GI50 (NCI-H23 lung) | TGI (NCI-H23 lung) | GI50 (SK-MEL-5 melanoma) | TGI (SK-MEL-5 melanoma) | GI50 (SF-539 CNS) | TGI (SF-539 CNS) | GI50 (HS 578T breast) | TGI (HS 578T breast) | GI50 (SN12C renal) | TGI (SN12C renal) | GI50 (K-562 leukemia) | TGI (K-562 leukemia) | GI50 (IGROV1 ovarian) | TGI (IGROV1 ovarian) | GI50 (OVCAR-4 ovarian) | TGI (OVCAR-4 ovarian) | GI50 (U251 CNS) | TGI (U251 CNS) | GI50 (DU-145 prostate) | TGI (DU-145 prostate)
1 | Fc1ccc(-c2nn3c(COc4ccc(Cl)cc4Cl)nnc3s2)cc1Oc1ccccc1 | 13.6 µM | 26.4 µM | 23 µM | 71.2 µM | 18 µM | 32.3 µM | 16.4 µM | 47.5 µM | 12.9 µM | 29.6 µM | 21.2 µM | > 100 µM | 26.2 µM | 92.6 µM | 24.6 µM | > 100 µM | 12.9 µM | 25.6 µM | 19.2 µM | 42.5 µM
2 | Cc1cc2c(cc1Cl)N1C(=O)NS(=O)(=O)N=C1NS2(=O)=O | > 100 µM | > 100 µM | > 100 µM | > 100 µM | > 100 µM | > 100 µM | > 100 µM | > 100 µM | > 100 µM | > 100 µM | > 100 µM | > 100 µM | > 100 µM | > 100 µM | > 100 µM | > 100 µM | > 100 µM | > 100 µM | > 100 µM | > 100 µM
3 | COc1c2ccccc2c(O)c2c(=O)ccn(C)c12 | 1.73 µM | 4.08 µM | 3.77 µM | 14.4 µM | 11.5 µM | 89.6 µM | 12.2 µM | 61.5 µM | 6.79 µM | 22.1 µM | 7.5 µM | > 100 µM | 30.9 µM | > 100 µM | 30.3 µM | > 92 µM | 2.67 µM | 13.4 µM | 7.67 µM | > 100 µM
4 | O=C(/C=C/c1ccccc1)OCC1=C[C@@H](O)[C@@H]2C=CO[C@@H](OC3OC(CO)C(O)C(O)C3O)[C@H]12 (some centres undefined) |  | > 100 µM |  | > 100 µM |  | > 100 µM |  | > 100 µM |  | > 100 µM |  |  |  | > 100 µM |  | > 100 µM |  | > 100 µM |  | > 100 µM
5 | O=C(Nc1ccccc1)Nc1ccc(Cl)c(Cl)c1 | 2.58 µM | > 100 µM | 3.61 µM | 14.4 µM |  |  | 2.9 µM | 29 µM | 3 µM | > 100 µM | 3.79 µM | > 100 µM | 3.63 µM | > 100 µM | 3.34 µM | 71.5 µM | 3.23 µM | 20.8 µM | 3.69 µM | > 100 µM
6 | COC(=O)NC(=O)c1cn(C2CCCCC2)c(=O)[nH]c1=O |  | > 100 µM |  | > 100 µM |  | > 100 µM |  |  |  | > 100 µM |  | > 100 µM |  | > 100 µM |  | > 100 µM |  | > 100 µM |  | 
7 | FC(F)(F)c1ccc(NCc2nc3ccccc3[nH]2)cc1 | 22.9 µM | 80.2 µM | 15.6 µM | 30 µM | 36.8 µM | > 100 µM | 23.3 µM | 79 µM | 29.7 µM | > 100 µM |  |  | 39.9 µM | > 100 µM | 27.1 µM | > 100 µM | 27.5 µM | > 100 µM | 47.9 µM | > 100 µM
8 | O=c1c2cc(O)c(O)cc2oc2cc(O)c(C3OC(CO)C(O)C(O)C3O)c(O)c12 (centres undefined) |  | > 100 µM |  | > 100 µM |  | > 100 µM |  | > 100 µM |  |  |  | > 100 µM |  | > 100 µM |  | > 100 µM |  | > 100 µM |  | 
9 | COc1ccc2c(c1)C(=O)c1c-2c(N2CCN(C(=O)CCNCCNCCO)CC2)nc2ccccc12 |  |  | 18 µM | 33.8 µM | 14.5 µM | 29.9 µM | 16.1 µM | 35.4 µM | 15.9 µM | 31.7 µM | 2.97 µM | 7.34 µM | 12.7 µM | 45.2 µM | 21.2 µM | 42.2 µM | 15.8 µM | 33.8 µM | 12.1 µM | 24.5 µM
10 | CC1(C)CC(N2CCN(C3CC(C)(C)NC(C)(C)C3)CC2)CC(C)(C)N1 |  | > 100 µM |  | > 100 µM |  | > 100 µM |  |  |  | > 100 µM |  | > 100 µM |  | > 100 µM |  | > 100 µM |  | > 100 µM |  | 
11 | Cc1cc(N)cc(C)c1-c1c(Br)cc(N)cc1Br | 3.52 µM | 19 µM | 4.52 µM | 16.1 µM | 2.89 µM | 11.1 µM |  |  | 6.05 µM | 73.2 µM |  |  | 4.32 µM | > 100 µM | 5.93 µM | > 100 µM | 4.54 µM | 17.9 µM | 2.89 µM | 9.13 µM
12 | O=C(CSc1ncc(-c2ccccc2)n1-c1ccccc1)Nc1ccc(-c2nc3ccccc3s2)cc1 | 20.4 µM | > 100 µM | > 100 µM | > 100 µM | 6.25 µM | > 100 µM | 4.89 µM | 80.8 µM | 71.5 µM | > 100 µM | > 100 µM | > 100 µM | 2.72 µM | > 100 µM |  |  | 2.42 µM | 5.56 µM |  | 
13 | COC(CC1(OC)OC(=O)C=C1N)OC (centres undefined) |  | > 100 µM |  | > 100 µM |  | > 100 µM |  |  |  | > 100 µM |  | > 100 µM |  | > 100 µM |  | > 100 µM |  | > 100 µM |  | 
14 | Fc1ccc(C2C3CCOc4c(ccc5ccccc45)C3=NN2c2ccccc2)cc1 (centres undefined) | > 100 µM | > 100 µM | 71.4 µM | > 100 µM |  |  | > 88.6 µM | > 100 µM | > 100 µM | > 100 µM | 49 µM | > 100 µM | > 100 µM | > 100 µM | > 100 µM | > 100 µM | 56.1 µM | > 100 µM | > 100 µM | > 100 µM
15 | COC(=O)C1=C(\O)C[C@@]2(C)CC[C@@H](C(=O)OC)C2C/C=C\1C(=O)OC (some centres undefined) |  |  |  | > 100 µM |  | 38.8 µM |  |  |  | > 100 µM |  |  |  | > 100 µM |  | > 100 µM |  | > 100 µM |  | 
16 | N#CC1C(=O)NC(=O)C1=O (centres undefined) |  | > 100 µM |  | > 100 µM |  | > 100 µM |  |  |  | > 100 µM |  | > 100 µM |  | > 100 µM |  | > 100 µM |  | > 100 µM |  | 
